In patent publication US6235284A, “Synthetic polypeptides belonging to the hepatitis C virus (HCV) and which can be used especially for detecting the latter” (Bio Merieux, priority 1992, dated 2001):
Values joined by “and” are separate entries in the source; they are usually repeats but may differ in a detail not shown here. Equal values may be shown once.

How the values were obtained:
[1] = test system: anti-HCV antibodies (HCV-positive sera); test: ELISA detection of anti-HCV antibodies in HCV-positive sera with adsorbed peptides; format: binding, human; conditions: for optical density at 492 nm: peptide 10 μg/ml, duplicate
Experimental: The reactivity of these three peptides towards the sera of individuals infected with the hepatitis C virus, termed (HCV) positive, was evaluated in an ELISA test according to the procedure described below.
(§1) Detection of anti-HCV Antibodies by ELISA
(§2) The wells of a microtiter plate of "NUNC MAXISORB™" trademark are saturated with 100 μl of a solution containing the peptide or a mixture of peptides (10 μg/ml) for 2 hours at 37° C. The plate is then emptied, then washed with a wash buffer containing 0.05% TWEEN™ 20(polysorbate 20). The wells are saturated with 100 μl of wash buffer supplemented with 10% goat serum (v/v), then incubated for 30 minutes at 37° C., then washed again as above. The sera to be analyzed are diluted to the appropriate dilution with saturation buffer. The incubation of the sera is 1 hour at 37° C. The wells are again washed. The solution of conjugate (goat IgG to human IgG labelled with peroxidase) at a dilution of 1/1000 in the saturation buffer is then added and the incubation lasts for 90 minutes at 37° C. After washing, the solution of orthophenylenediamine substrate is added. After 10 minutes, the reaction is stopped with 50 μl of H2 SO4 and the optical density is read at 492 nm. It should be noted that all the tests were carried out in duplicate.
(§3) For that, the different peptides are adsorbed on the microplates at a concentration of 10 μg/ml and the sera are used at 1/100 dilution.
(§4) The values obtained, which are collated in Table 1 below, correspond to the optical density (OD) multiplied by 10^3, at 492 nm.
(§5) For each serum the experiment was carried out in duplicate. The **** are values outside the upper scale.
The different peptides are absorbed onto microplates at a concentration of 10 μg/ml and the sera are used at the dilution stated.
The values obtained, which are collated in Table 2 below, correspond to the optical density at 492 nm. All the experiments were carried out in duplicate.
Each serum was, in a first instance, tested at the dilution 1/100.
The values given correspond to the optical density read at 492 nm multiplied by the factor 10^3.

normal sera = test: ELISA of peptides on normal sera (specificity); format: binding, human; conditions: peptide 10 μg/ml, duplicate
Experimental: as §1, §2, §3, §4, §5

HCV-positive sera = conditions: Nasoff et al., recombinant fusion proteins; cited from earlier work

With “R40R: peptide extending from arginine 74 up to arginine 115 of the HCV CORE protein (RTWAQPGYPWPLYGNEGCGWAGWLLSPRGSRPSWGPTDPRRR)” the “sera with which the peptide reacts” value ([1]; cf Table 1) was “about 10%”, the “optical density at 492 nm” value ([1]; serum B 1, 1/100) was 172 OD × 10^3 and 173 OD × 10^3 and the “optical density at 492 nm” value ([1]; serum B 2, 1/100) was 364 OD × 10^3 and 345 OD × 10^3. The “optical density at 492 nm” value ([1]; serum B 3, 1/100) was 304 OD × 10^3 and 341 OD × 10^3, the “optical density at 492 nm” value ([1]; serum B 4, 1/100) was 405 OD × 10^3 and 346 OD × 10^3 and the “optical density at 492 nm” value ([1]; serum B 5, 1/100) was 360 OD × 10^3 and 281 OD × 10^3. The “optical density at 492 nm” value ([1]; serum B 6, 1/100) was 172 OD × 10^3 and 163 OD × 10^3, the “optical density at 492 nm” value ([1]; serum B 7, 1/100) was 418 OD × 10^3 and 457 OD × 10^3 and the “optical density at 492 nm” value ([1]; serum B 8, 1/100) was 271 OD × 10^3 and 259 OD × 10^3. The “optical density at 492 nm” value ([1]; serum B 9, 1/100) was 235 OD × 10^3 and 229 OD × 10^3, the “optical density at 492 nm” value ([1]; serum B 10, 1/100) was 108 OD × 10^3 and 98 OD × 10^3 and the “optical density at 492 nm” value ([1]; serum B 11, 1/100) was 164 OD × 10^3 and 184 OD × 10^3. The “optical density at 492 nm” value ([1]; serum B 12, 1/100) was 136 OD × 10^3 and 117 OD × 10^3, the “optical density at 492 nm” value ([1]; serum B 13, 1/100) was 140 OD × 10^3 and 99 OD × 10^3 and the “optical density at 492 nm” value ([1]; serum B 14, 1/100) was 130 OD × 10^3 and 125 OD × 10^3. For the same substance, the “optical density at 492 nm” value ([1]; serum B 15, 1/100) was 301 OD × 10^3 and 303 OD × 10^3, the “optical density at 492 nm” value ([1]; serum B 16, 1/100) was 117 OD × 10^3 and 125 OD × 10^3 and the “optical density at 492 nm” value ([1]; serum P 1, 1/100) was 375 OD × 10^3 and 420 OD × 10^3. For the same substance, the “optical density at 492 nm” value ([1]; serum P 2, 1/100) was 399 OD × 10^3 and 391 OD × 10^3, the “optical density at 492 nm” value ([1]; serum P 3, 1/100) was 223 OD × 10^3 and 215 OD × 10^3 and the “optical density at 492 nm” value ([1]; serum P 4, 1/100) was 309 OD × 10^3 and 307 OD × 10^3. The “optical density at 492 nm” value ([1]; serum P 5, 1/100) was 129 OD × 10^3 and 176 OD × 10^3, the “optical density at 492 nm” value ([1]; serum P 6, 1/100) was 87 OD × 10^3 and 100 OD × 10^3 and the “optical density at 492 nm” value ([1]; serum P 7, 1/100) was 496 OD × 10^3 and 478 OD × 10^3. The “optical density at 492 nm” value ([1]; serum P 8, 1/100) was 282 OD × 10^3 and 328 OD × 10^3, the “optical density at 492 nm” value ([1]; serum P 9, 1/100) was 159 OD × 10^3 and 158 OD × 10^3 and the “optical density at 492 nm” value ([1]; serum P 10, 1/100) was 218 OD × 10^3 and 216 OD × 10^3. For the same substance, the “optical density at 492 nm” value ([1]; serum P 11, 1/100) was 1191 OD × 10^3 and 1377 OD × 10^3, the “optical density at 492 nm” value ([1]; serum P 12, 1/100) was 1121 OD × 10^3 and 1231 OD × 10^3 and the “optical density at 492 nm” value ([1]; serum P 13, 1/100) was 113 OD × 10^3 and 116 OD × 10^3. The “optical density at 492 nm” value ([1]; serum P 14, 1/100) was 280 OD × 10^3 and 270 OD × 10^3, the “optical density at 492 nm” value ([1]; serum P 15, 1/100) was 2305 OD × 10^3 and 2335 OD × 10^3 and the “optical density at 492 nm” value ([1]; serum P 16, 1/100) was 938 OD × 10^3 and 964 OD × 10^3. For the same substance, the “optical density at 492 nm” value ([1]; serum P 17, 1/100) was 217 OD × 10^3 and 212 OD × 10^3, the “optical density at 492 nm” value ([1]; serum P 18, 1/100) was 1427 OD × 10^3 and 1327 OD × 10^3 and the “optical density at 492 nm” value ([1]; serum P 19, 1/100) was 84 OD × 10^3 and 89 OD × 10^3. The “optical density at 492 nm” value ([1]; serum P 20, 1/100) was 714 OD × 10^3 and 740 OD × 10^3, the “optical density at 492 nm” value (normal sera; normal serum SN 10, 1/100) was 163 OD × 10^3 and 154 OD × 10^3 and the “optical density at 492 nm” value (normal sera; normal serum SN 11, 1/100) was 150 OD × 10^3 and 138 OD × 10^3. The “optical density at 492 nm” value (normal sera; normal serum SN 16, 1/100) was 426 OD × 10^3 and 439 OD × 10^3, the “optical density at 492 nm” value (normal sera; normal serum SN 17, 1/100) was 104 OD × 10^3 and 74 OD × 10^3 and the “optical density at 492 nm” value (normal sera; normal serum SN 18, 1/100) was 119 OD × 10^3 and 87 OD × 10^3. The “optical density at 492 nm” value (normal sera; normal serum SN 19, 1/100) was 480 OD × 10^3 and 496 OD × 10^3.

In the case of glutathione S-transferase, the “reactivity towards HCV-positive sera” value (HCV-positive sera) is listed as “none of the sera tested reacts”.
